Experimental findings from patent publication US20080207617A1, “Quinoline Derivatives and Quinazoline Derivatives Inhibiting Autophosphrylation of Flt3 and Medicinal Compositions Containing the Same” (KIRIN BEER KABUSHIKI KAISHA, priority 2002, published 2008) are described below.

Each structure is given as a SMILES string. pIC50: −log10 of the molar value.

The test system of test [1] is MOLM13. In words: Cell growth inhibitory activities on cultured human leukemia cells MOLM-13 (WST-1). The class given is cell-based. To be noted: Homo sapiens, MOLM-13, 72 h, 3 days culture. As to the method:
Pharmacological Test Example 4
Cell Growth Inhibitory Activities on Cultured Human Leukemia Cells
(§1) Human leukemia cells MOLM13 (subdivided from Hayashibara Biochemical Laboratories, Inc.) were seeded in an amount of 3×10^3 using a DMEM medium containing 10% fetal calf serum (purchased from GIBCO) in a 96-well flat bottom plate. A solution of a test compound in dimethyl sulfoxide was added to each well and was cultured in a 5% carbon dioxide incubator for 3 days. Three days after the initiation of the culture, 10 μl of a WST-1 solution in Cell Counting Kit (purchased from Wako Pure Chemical Industries, Ltd.) was added to each well for a color reaction. After proper color development, the absorbance was measured with a microplate reader under conditions of measurement wavelength 450 nm and reference wavelength 650 nm. The growth ratio for each well was determined by presuming the absorbance without the addition of the medicament to be 100% growth ratio and the absorbance of the well without seeding of the cells to be 0% growth ratio. The concentration of the test compound was varied on several levels, the cell growth ratio for each case was determined, and the concentration of the test compound necessary for inhibiting 50% of cell growth ratio (IC50) was calculated.
On the technique in general: Formazan colour is commonly taken as a measure of viable cells.

Test [2] relates to MOLM13. Nature of the test: Cell growth inhibitory activity using MTT method (MOLM13). In kind it is cell-based, human. To be noted: Homo sapiens, MOLM-13, 72 h, MOLM13 cells. As for the experimental part: Pharmacological Test Example 3
Measurement of Cell Growth Inhibitory Activity Using MTT Method
Human leukemia cell line MOLM13 (subdivided from Hayashibara Biochemical Laboratories, Inc.) was cultured in an RPMI medium containing 10% fetal calf serum (purchased from Asahi Techno Glass Corporation) within a 5% carbon dioxide incubator until the cell density reached 50 to 90% of the maximum cell density. These cells were seeded into wells, containing an RPMI medium containing 10% fetal calf serum, in a 96-well flat bottom plate in an amount of […] per well. The amount of the solution of the medium in each well was brought to 100 μl, and a test compound was added thereto to 500 ng, 100 ng, 20 ng, and 4 ng per ml. After culture within an incubator for 72 hr, 10 μl of a 5 mg/ml MTT (3-(4,5-dimethylthiazol-2-yl)-2,5-diphenyl tetrazolium bromide) solution (purchased from SIGMA) was added to the medium, and a reaction was allowed to proceed for 4 hr. Thereafter, 100 μl of a 0.04 N hydrochloric acid-isopropanol solution was added to completely dissolve the resultant MTT formazan crystal. After the dissolution, absorbance at 550 nm was measured using 620 nm as a reference wavelength with a microplate reader (DIGISCAN) (It is regarded that, in the MTT method, the viable cell count is reflected, and linearity is observed in a cell count per well range of 5×10^5 to 2×10^2 cells). After 72 hr, the absorbance of only the medium free from cells was subtracted from the absorbance of the well without the addition of the test compound to determine a value which was presumed to be 100%. On the other hand, the absorbance with the addition of the compound was expressed in terms of % growth.

The test system of test [3] is MV4-11. Nature of the test: Cell growth inhibitory test MV4-11 (WST-1). The class given is cell-based, human. The following applies: Homo sapiens, MV4-11, 72 h, MV4-11 cells, 3 days culture. As to the method: Pharmacological Test Example 2
Cell Growth Inhibitory Test
MV4-11 (ATCC number: CRL-9591) as human leukemia cells was seeded in an amount of 3×10^3 using a DMEM medium containing 10% fetal calf serum (purchased from GIBCO) in a 96-well flat bottom plate.
as §1, with “A” for “Human leukemia cells MOLM13 (subdivided from Hayashibara Biochemical Laboratories, Inc.) were seeded in an amount of 3×10^3 using a DMEM medium containing 10% fetal calf serum (purchased from GIBCO) in a 96-well flat bottom plate. A”

As a reminder, the IC50 is the concentration at which inhibition is half-maximal. The low end stands for greater potency, the high end for weaker potency. A word on the pIC50: it is the negative decadic logarithm of the IC50, by convention in mol/L. A higher pIC50 goes with a low IC50. Regarding `COc1cc2nccc(Oc3ccc(NC(=O)NCCC(C)(C)C)cc3OC)c2cc1OC` [Compound 5, 1-[4-(6,7-Dimethoxy-quinolin-4-yloxy)-3-methoxy-phenyl]-3-(3,3-dimethyl-butyl)-urea], it took 36 nM to reach half-maximal inhibition in test [1] (IC50). Further, the negative logarithm of the IC50 (pIC50) was 7.03 in test [2] and 7.64 in test [3].
The like results for `COc1cc2nccc(Oc3ccc(NC(=O)NCCC4CCCCC4)cc3F)c2cc1OC` [Compound 16, 1-(2-Cyclohexyl-ethyl)-3-[4-(6,7-dimethoxy-quinolin-4-yloxy)-3-fluoro-phenyl]-urea] were, in that order, 7 nM, 7.73 and 8.40.
The like results for `COc1cc2nccc(Oc3ccc(NC(=O)NCCC4CCCCC4)cc3Cl)c2cc1OC` [Compound 17, 1-[3-Chloro-4-(6,7-dimethoxy-quinolin-4-yloxy)-phenyl]-3-(2-cyclohexyl-ethyl)-urea] were, in that order, 27 nM, 7.69 and 7.77.
On the same counts, the results for `COc1cc2nccc(Oc3ccc(NC(=O)NCCC4CCCC4)cc3F)c2cc1OC` [Compound 18, 1-(2-Cyclopentyl-ethyl)-3-[4-(6,7-dimethoxy-quinolin-4-yloxy)-3-fluoro-phenyl]-urea] are 2 nM, 7.39 and 9.00.
With `COc1cc2nccc(Oc3ccc(NC(=O)NC4CCCCC4)cc3)c2cc1OC` [Compound 26, 1-Cyclohexyl-3-[4-(6,7-dimethoxy-quinolin-4-yloxy)-phenyl]-urea], in test [1], the IC50 turned out to be 18 nM. Besides, the results for the pIC50 in test [2] and in test [3] were 7.50 and 7.92, respectively.
On the same counts, the results for `COc1cc2c(Oc3ccc(NC(=O)NCCC(C)(C)C)c(Cl)c3)ccnc2cc1OCCCN1CCCC1` [Compound 45, 1-{2-Chloro-4-[6-methoxy-7-(3-pyrrolidin-1-yl-propoxy)-quinolin-4-yloxy]-phenyl}-3-(3,3-dimethyl-butyl)-urea] are 140 nM, 6.59 and 6.93.
On the same counts, the results for `COc1cc2c(Oc3ccc(NC(=O)NCCC(C)(C)C)c(Cl)c3)ccnc2cc1OCCCN1CCCCC1` [Compound 46, 1-{2-Chloro-4-[6-methoxy-7-(3-piperidin-1-yl-propoxy)-quinolin-4-yloxy]-phenyl}-3-(3,3-dimethyl-butyl)-urea] are 123 nM, 7.11 and 6.84.
On the same counts, the results for `CCN(CC)CCCOc1cc2nccc(Oc3ccc(NC(=O)NCCC(C)(C)C)c(Cl)c3)c2cc1OC` [Compound 47, 1-{2-Chloro-4-[7-(3-diethylamino-propoxy)-6-methoxy-quinolin-4-yloxy]-phenyl}-3-(3,3-dimethyl-butyl)-urea] are 60 nM, 6.87 and 7.29.
As for `COc1cc2c(Oc3ccc(NC(=O)NCCC(C)(C)C)c(Cl)c3)ccnc2cc1OCCCN1CCC(C)CC1` [Compound 52, 1-(2-Chloro-4-{6-methoxy-7-[3-(4-methyl-piperidin-1-yl)-propoxy]-quinolin-4-yloxy}-phenyl)-3-(3,3-dimethyl-butyl)-urea], the IC50 in test [1] turned out to be 188 nM. Besides, the pIC50 in test [3] was 6.74.
The compound `COc1cc2c(Oc3ccc(NC(=O)NCCC(C)(C)C)cc3)ccnc2cc1OCCN1CC(C)CC(C)C1` (stereo not drawn) [Compound 53, 1-(3,3-Dimethyl-butyl)-3-(4-{7-[2-(3,5-dimethyl-piperidin-1-yl)-ethoxy]-6-methoxy-quinolin-4-yloxy}-phenyl)-urea] registered a half-maximal inhibitory concentration (IC50) in test [1] of 13 nM. For the same compound, the results for the negative-log IC50 (pIC50) in test [2] and in test [3] were 7.78 and 8.40, respectively.
On the same counts, the results for `COc1cc2c(Oc3ccc(NC(=O)NCCC(C)(C)C)cc3)ccnc2cc1OCCCN1CC(C)CC(C)C1` (stereo not drawn) [Compound 54, 1-(3,3-Dimethyl-butyl)-3-(4-{7-[3-(3,5-dimethyl-piperidin-1-yl)-propoxy]-6-methoxy-quinolin-4-yloxy}-phenyl)-urea] are 10 nM, 7.71 and 8.52.
Consider `COc1cc2c(Oc3ccc(NC(=O)NC4CCCC(C)(C)C4)cc3F)ccnc2cc1OCCN1CCCCC1` (stereo not drawn) [Compound 55, 1-(3,3-Dimethyl-cyclohexyl)-3-{3-fluoro-4-[6-methoxy-7-(2-piperidin-1-yl-ethoxy)-quinolin-4-yloxy]-phenyl}-urea], for which the IC50 in test [1] turned out to be 25 nM. Moreover, the negative-log IC50 (pIC50) is 7.43 in test [2] and 8.22 in test [3].
On the same counts, the results for `COc1cc2c(Oc3ccc(NC(=O)NC4CC(C)CC(C)(C)C4)cc3F)ccnc2cc1OCCN1CCCCC1` (stereo not drawn) [Compound 56, 1-{3-Fluoro-4-[6-methoxy-7-(2-piperidin-1-yl-ethoxy)-quinolin-4-yloxy]-phenyl}-3-(3,3,5-trimethyl-cyclohexyl)-urea] are 26 nM, 7.95 and 7.85.
The like results for `COc1cc2c(Oc3ccc(NC(=O)NC4CC(C)CC(C)(C)C4)c(F)c3)ccnc2cc1OCCN1CCCCC1` (stereo not drawn) [Compound 57, 1-{2-Fluoro-4-[6-methoxy-7-(2-piperidin-1-yl-ethoxy)-quinolin-4-yloxy]-phenyl}-3-(3,3,5-trimethyl-cyclohexyl)-urea] were, in that order, 29 nM, 6.92 and 7.72.
The like results for `COc1cc2c(Oc3ccc(NC(=O)NCCC4CCCCC4)cc3F)ccnc2cc1OCCN1CCCCC1` [Compound 58, 1-(2-Cyclohexyl-ethyl)-3-{3-fluoro-4-[6-methoxy-7-(2-piperidin-1-yl-ethoxy)-quinolin-4-yloxy]-phenyl}-urea] were, in that order, 17 nM, 7.29 and 8.40.
`COc1cc2c(Oc3ccc(NC(=O)NCCC4CCCC4)cc3F)ccnc2cc1OCCN1CCCCC1` [Compound 59, 1-(2-Cyclopentyl-ethyl)-3-{3-fluoro-4-[6-methoxy-7-(2-piperidin-1-yl-ethoxy)-quinolin-4-yloxy]-phenyl}-urea] yielded a half-maximal inhibitory concentration (IC50) in test [1] of 4 nM. This compound also showed a pIC50 in test [3] of 8.70.
The like results for `COc1cc2c(Oc3ccc(NC(=O)NCCC(C)(C)C)c(F)c3)ccnc2cc1OCCN1C(C)(C)CCCC1(C)C` [Compound 61, 1-(3,3-Dimethyl-butyl)-3-(2-fluoro-4-{6-methoxy-7-[2-(2,2,6,6-tetramethyl-piperidin-1-yl)-ethoxy]-quinolin-4-yloxy}-phenyl)-urea] were, in that order, 138 nM and 7.24.
In turn, `COc1cc2c(Oc3ccc(NC(=O)NCCC(C)(C)C)cc3)ccnc2cc1OCCN1CCOCC1` [Compound 66, 1-(3,3-Dimethyl-butyl)-3-{4-[6-methoxy-7-(2-morpholin-4-yl-ethoxy)-quinolin-4-yloxy]-phenyl}-urea] showed an IC50 in test [1] of less than 1 nM. The compound also had a pIC50 in test [3] of more than 9.00.
On the same counts, the results for `COc1cc2c(Oc3ccc(NC(=O)NCCC4CCCCCC4)c(F)c3)ccnc2cc1OCCN1CC(C)OC(C)C1` (stereo not drawn) [Compound 71, 1-(2-Cycloheptyl-ethyl)-3-(4-{7-[2-(2,6-dimethyl-morpholin-4-yl)-ethoxy]-6-methoxy-quinolin-4-yloxy}-2-fluoro-phenyl)-urea] are 27 nM and 7.82.
The like results for `COc1cc2c(Oc3ccc(NC(=O)NCCC(C)(C)C)c(Cl)c3)ccnc2cc1OCCN1CCCCCC1` [Compound 74, 1-{4-[7-(2-Azepan-1-yl-ethoxy)-6-methoxy-quinolin-4-yloxy]-2-chloro-phenyl}-3-(3,3-dimethyl-butyl)-urea] were, in that order, 244 nM and 6.59.
